Consider 6 molecules from the supplement of paper PMC4862054.

The structures appear in SMILES notation.

Conditions in all cases: 72 h
In one assay the test system is MDA-MB-436. On the procedure:
(§1)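 Drug sensitivity and resistance testing (DSRT) of breast cancer cell lines in 384-well plates, 5 concentrations in 10-fold dilutions over a compound-specific 10,000-fold range. After 72 h, cytotoxicity was read by CellTox Green fluorescence and viability by CellTiter-Glo luminescence (multiplexed), normalised to DMSO and benzethonium chloride controls. EC50 is the inflection point of the fitted dose-response curve (bottom asymptote free, so it can be relative for partial curves) and is censored at the highest tested concentration. Rows with DSS 0 (no meaningful response) were excluded.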

The subject of another assay is HCC1599. On the procedure: as §1
Another assay has as its system BT-549. Here is the method:
as §1

Assay [1] has as its system BT-474. On the procedure: as §1
The subject of assay [2] is Hs578T. On the procedure:
as §1

The subject of assay [3] is MDA-MB-231. Here is the method: as §1
Another assay relates to SK-BR-3. The procedure, abridged: (§2)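 EC50 is the value from a fitted percent-inhibition dose-response curve, censored at the highest concentration, and rows with zero drug sensitivity score were not kept. The underlying assay seeded breast cancer cell lines in 20 µl onto 384-well plates pre-loaded with compound in 5 µl medium for 72 h. Viability was then read by CellTiter-Blue fluorescence at 560/590 nm after 2 h at 37 °C, with each plate normalised to vehicle and a positive kill control.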

For assay [4], the system named is HCC1937. In outline:
as §2

Assay [5] deals with HDQ-P1. The procedure, abridged:
(§3)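 Per-plate normalisation used 0.1 % DMSO and a positive kill control. Breast cancer cell lines (20 µl suspension) were seeded into 384-well plates containing compound at 5 concentrations in 10-fold steps across a compound-specific 10,000-fold range, incubated for 72 h, and read first for CellTox Green fluorescence (485/520 nm), then for CellTiter-Glo luminescence. EC50 was fitted from the dose-response curves and censored at the top concentration.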

A further assay concerns CAL-51. Here is the method:
as §1

Assay [6] concerns CAL-148. On the procedure: as §1
Assay [7] has as its system BT-474. The procedure, abridged:
as §2
The source holds these as a separate data set.

Assay [8] deals with MDA-MB-468. In outline: as §2
Assay [9] has as its system Hs578T. In outline:
as §2
This is another data set of the same source.

Assay [10] relates to MDA-MB-231. The procedure, abridged:
as §2
The source holds these as a separate data set.

The test system of assay [11] is CAL-148. The procedure, abridged:
as §3
The source holds these as a separate data set.

The next assay deals with HCC1143. Here is the method:
as §1

A further assay relates to CAL-120. Here is the method: as §1
In assay [12] the test system is HDQ-P1. On the procedure: as §1
The source holds these as a separate data set.

In assay [13] the test system is MDA-MB-468. Here is the method:
as §1
This is another data set of the same source.

In assay [14] the test system is HCC1937. On the procedure:
as §1
This is another data set of the same source.

Another assay concerns MFM-223. Here is the method: as §1
The test system of another assay is MCF-10A. On the procedure: as §1

For `C[C@]12O[C@H](C[C@]1(O)CO)n1c3ccccc3c3c4c(c5c6ccccc6n2c5c31)CNC4=O` [Lestaurtinib], the “EC50, CellTox Green” value was 11.9 nM with MDA-MB-436; 439 nM in the assay with HCC1599; 1000 nM with BT-549; 819 nM with BT-474 [1]; 333 nM in the assay with Hs578T [2]; more than 1000 nM with MDA-MB-231 [3]. Also, the “EC50, CellTiter-Blue viability” value in the assay on SK-BR-3 turned out to be 813 nM; with HCC1937 [4] it was 369 nM. The “EC50, CellTiter-Glo” value with HDQ-P1 [5] was found to be 233 nM.

Consider `O=C1c2c(O)ccc(O)c2C(=O)c2c(NCCNCCO)ccc(NCCNCCO)c21` [Mitoxantrone], for which the “EC50, CellTox Green” value with CAL-51 is 185 nM; in the assay with CAL-148 [6], 124 nM. Further, the “EC50, CellTiter-Blue viability” value was determined as 34.5 nM in the assay with SK-BR-3; 106 nM in the assay with BT-474 [7]; 74.8 nM in the assay on MDA-MB-468 [8]; 532 nM in the assay with Hs578T [9]; 2.13 nM in the assay on HCC1937 [4]; 51.7 nM in the assay on MDA-MB-231 [10]. Besides, the “EC50, CellTiter-Glo” value with CAL-148 [11] came to 403 nM.

`Nc1ccccc1NC(=O)c1ccc(CNc2nccc(-c3cccnc3)n2)cc1` [Mocetinostat]: the “EC50, CellTox Green” value with CAL-51 worked out at 1600 nM; in the assay on CAL-148 [6] it was 5350 nM; in the assay on MDA-MB-436 it was 1340 nM; in the assay with HCC1599, 2100 nM; with BT-549, 7700 nM; with HCC1143 it was 3360 nM. For the same molecule, the “EC50, CellTox Green” value is 4510 nM in the assay with CAL-120; 597 nM in the assay on HDQ-P1 [12]; 6830 nM in the assay with BT-474 [1]; 961 nM in the assay on MDA-MB-468 [13]; 629 nM with Hs578T [2]; more than 10000 nM in the assay on HCC1937 [14]. For the same molecule, the “EC50, CellTox Green” value in the assay on MDA-MB-231 [3] is 1720 nM. Moreover, the “EC50, CellTiter-Blue viability” value with SK-BR-3 worked out at 1050 nM; in the assay on BT-474 [7] it was 5750 nM; with MDA-MB-468 [8], 1930 nM; in the assay on Hs578T [9] it was 2670 nM; in the assay with HCC1937 [4] it was 1960 nM; in the assay on MDA-MB-231 [10], 2740 nM. The “EC50, CellTiter-Glo” value in the assay with CAL-148 [11] came out at 2270 nM; with HDQ-P1 [5], 5520 nM.

Turning to `COc1nc(N)nc2c1ncn2[C@@H]1O[C@H](CO)[C@@H](O)[C@@H]1O` [Nelarabine], the “EC50, CellTox Green” value in the assay on BT-549 was more than 10000 nM.

For the molecule `Cc1ccc(Nc2nccc(N(C)c3ccc4c(C)n(C)nc4c3)n2)cc1S(N)(=O)=O` [Pazopanib], in the assay with HCC1143, the “EC50, CellTox Green” value was more than 10000 nM.

For `CS(=O)(=O)N1CCN(Cc2cc3nc(-c4cccc5[nH]ncc45)nc(N4CCOCC4)c3s2)CC1` [Pictilisib], the “EC50, CellTox Green” value in the assay on CAL-51 turned out to be 2090 nM; in the assay on MFM-223 it was 955 nM; in the assay with CAL-148 [6] it was 293 nM; in the assay with MCF-10A, 270 nM; in the assay on BT-474 [1] it was 9300 nM. For the same molecule, the “EC50, CellTiter-Glo” value with CAL-148 [11] is 1350 nM; with HDQ-P1 [5], 657 nM.
